Key:
Assay in all cases: relative viability (nuclei count vs DMSO), 5 days (fraction); higher = more cells survive
[1] = compound: CS(=O)(=O)N1CCN(Cc2cc3nc(-c4cccc5[nH]ncc45)nc(N4CCOCC4)c3s2)CC1 [Pictilisib] + CC(=O)Nc1cccc(-n2c(=O)n(C3CC3)c(=O)c3c(Nc4ccc(I)cc4F)n(C)c(=O)c(C)c32)c1 [Trametinib] (partner 0.02 µM)
Summary of the method: (§1)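 Relative viability divides the nuclei count in treated wells by that in vehicle wells. Lung cancer cell lines were seeded in 1536-well plates, dosed by pin tool the next day, and fixed and stained after 5 days in one step with final 0.05% Triton X-100, 1% formaldehyde and 1 ug/ml Hoechst. Dosing was a single drug or a fixed anchor-drug dose plus five library-drug doses (not always all listed) in √10 steps, and values are medians of duplicate plates imaged at 4×.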

[2] = compound: NC1(c2ccc(-c3nc4ccn5c(=O)[nH]nc5c4cc3-c3ccccc3)cc2)CCC1 [MK-2206] + CC(C)C[C@H](NC(=O)[C@H](Cc1ccccc1)NC(=O)c1cnccn1)B(O)O [Bortezomib] (partner 0.002 µM)
Summary of the method: as §1

[3] = compound: CS(=O)(=O)N1CCN(Cc2cc3nc(-c4cccc5[nH]ncc45)nc(N4CCOCC4)c3s2)CC1 [Pictilisib] + COc1cccc2cc(-c3nc([C@H]4CC[C@H](C(=O)O)CC4)n4ncnc(N)c34)[nH]c12 [OSI-027] (partner 0.5 µM)
Summary of the method: as §1

[4] = compound: NC1(c2ccc(-c3nc4ccn5c(=O)[nH]nc5c4cc3-c3ccccc3)cc2)CCC1 [MK-2206] + Nc1ncn([C@H]2C[C@H](O)[C@@H](CO)O2)c(=O)n1 [Decitabine] (partner 2 µM)
Summary of the method: as §1

[5] = compound: NC1(c2ccc(-c3nc4ccn5c(=O)[nH]nc5c4cc3-c3ccccc3)cc2)CCC1 [MK-2206] + CC(=O)Nc1cccc(-n2c(=O)n(C3CC3)c(=O)c3c(Nc4ccc(I)cc4F)n(C)c(=O)c(C)c32)c1 [Trametinib] (partner 0.02 µM)
Summary of the method: as §1

Cell Line	relative viability ([1]; first compound 0.02 µM)	relative viability ([1]; first compound 0.06325 µM)	relative viability ([1]; first compound 0.6325 µM)	relative viability ([1]; first compound 2 µM)	relative viability ([2]; first compound 0.01 µM)	relative viability ([2]; first compound 0.03162 µM)	relative viability ([2]; first compound 0.3162 µM)	relative viability ([2]; first compound 1 µM)	relative viability ([3]; first compound 0.02 µM)	relative viability ([3]; first compound 0.06325 µM)	relative viability ([3]; first compound 0.6325 µM)	relative viability ([3]; first compound 2 µM)	relative viability ([4]; first compound 0.01 µM)	relative viability ([4]; first compound 0.03162 µM)	relative viability ([4]; first compound 0.3162 µM)	relative viability ([4]; first compound 1 µM)	relative viability ([5]; first compound 0.01 µM)	relative viability ([5]; first compound 0.03162 µM)	relative viability ([5]; first compound 0.3162 µM)	relative viability ([5]; first compound 1 µM)
NCI-H727	0.409	0.367	0.344	0.331	0.901	0.828	0.587	0.54	0.741	0.649	0.548	0.333	0.959	0.833	0.884	0.755	0.402	0.382	0.388	0.37
NCI-H520	0.57	0.64	0.215	0.14	0.485	0.675	0.431	0.242	0.239	0.332	0.156	0.171	0.489	0.527	0.264	0.212	0.833	0.569	0.277	0.187
NCI-H838	0.431	0.453	0.374	0.246	0.822	0.916	0.836	0.751	0.328	0.308	0.242	0.189	0.472	0.494	0.496	0.451	0.504	0.507	0.498	0.354
HCC-44	0.896	1.03	1.01	0.643	0.921	0.86	0.877	0.874	0.587	0.5	0.405	0.266	0.959	0.968	0.934	0.908	0.927	1.02	1.11	1.04
HCC-827	0.519	0.422	0.378	0.235	0.98	1.06	1.09	1.03	0.824	0.696	0.338	0.192	0.347	0.256	0.276	0.228	0.541	0.548	0.491	0.444
SW 1573	0.563	0.473	0.379	0.239	0.948	1.04	0.834	0.629	0.615	0.584	0.362	0.237	0.505	0.43	0.502	0.453	0.608	0.516	0.444	0.489
NCI-H2023	0.52	0.404	0.315	0.172	0.958	0.838	0.778	0.612	0.385	0.33	0.151	0.0847	0.247	0.225	0.243	0.211	0.514	0.532	0.38	0.376
EPLC-272H	0.275	0.278	0.212	0.126	1.05	1.06	–	1.01	0.296	0.284	0.242	0.18	0.392	0.345	0.364	0.392	0.266	0.307	0.298	0.312
SK-LU-1	0.459	0.47	0.355	0.32	1.28	1.22	1.01	0.747	0.38	0.335	0.185	0.19	0.648	0.592	0.613	0.555	0.556	0.513	0.449	0.431
NCI-H2085	0.443	0.471	0.2	0.26	1.06	1.12	0.929	0.716	0.706	0.802	0.303	0.284	0.511	0.584	0.513	0.514	0.527	0.52	0.292	0.36
NCI-H2087	0.204	0.165	0.138	0.153	0.763	0.875	0.807	0.69	0.503	0.446	0.32	0.237	0.244	0.273	0.24	0.196	0.246	0.211	0.176	0.133
NCI-H322M	0.516	0.529	0.407	0.394	1.12	1.35	1.31	1.41	0.546	0.538	0.366	0.392	0.677	0.735	0.787	0.624	0.475	0.505	0.495	0.546
NCI-H1734	0.692	0.717	0.499	0.315	0.847	1.02	0.66	0.725	0.552	0.554	0.291	0.224	0.527	0.516	0.469	0.447	0.633	0.646	0.535	0.478
EKVX	0.424	0.287	0.268	0.193	0.996	1.21	0.705	0.649	0.697	0.352	0.561	0.269	0.359	0.339	0.324	0.322	0.326	0.398	0.275	0.289
NCI-H596	0.795	0.764	0.515	0.327	1.07	1.09	0.964	0.648	0.719	0.729	0.353	0.296	1.03	1.03	0.99	0.914	0.728	0.756	0.713	0.603
